{"source": "the supplement of paper PMC10307832", "assay_in_all_cases": "relative viability (nuclei count vs DMSO), 5 days (fraction); higher = more cells survive", "key": {"BX 795": {"compound": "O=C(NCCCNc1nc(Nc2cccc(NC(=O)N3CCCC3)c2)ncc1I)c1cccs1 [BX 795]", "summary_of_the_method": "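Only plates meeting two conditions passed: control CV below 25% and at least one doubling. Lung cancer cell lines, kept overnight at 37 °C in 1536-well plates, were pinned with five library-drug doses (not always all listed) √10 apart on vehicle-anchored plates and grown 5 days without medium change. A one-step fix, permeabilisation and Hoechst stain preceded 4× imaging and MetaXpress nuclear counting. Viability equals treated-well nuclei divided by vehicle-well nuclei, as the median over plates.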"}, "BX 795 + Trametinib": {"compound": "O=C(NCCCNc1nc(Nc2cccc(NC(=O)N3CCCC3)c2)ncc1I)c1cccs1 [BX 795] + CC(=O)Nc1cccc(-n2c(=O)n(C3CC3)c(=O)c3c(Nc4ccc(I)cc4F)n(C)c(=O)c(C)c32)c1 [Trametinib] (partner 0.02 µM)", "summary_of_the_method": "(§1)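 Lung cancer cell lines, seeded in 1536-well plates, were treated the following day by pin tool with a single drug or with five library-drug doses (not always all listed) in √10 steps on top of a fixed anchor-drug dose. Cells were fixed and nuclei stained in one step after 5 days, and nuclei were counted. Relative viability is the nuclei count for treated wells divided by that for vehicle wells, reported as medians of duplicate plates.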"}, "BX 795 + Palbociclib": {"compound": "O=C(NCCCNc1nc(Nc2cccc(NC(=O)N3CCCC3)c2)ncc1I)c1cccs1 [BX 795] + CC(=O)c1c(C)c2cnc(Nc3ccc(N4CCNCC4)cn3)nc2n(C2CCCC2)c1=O [Palbociclib] (partner 0.5 µM)", "summary_of_the_method": "as §1"}, "BX 795 + Luminespib": {"compound": "O=C(NCCCNc1nc(Nc2cccc(NC(=O)N3CCCC3)c2)ncc1I)c1cccs1 [BX 795] + CCNC(=O)c1noc(-c2cc(C(C)C)c(O)cc2O)c1-c1ccc(CN2CCOCC2)cc1 [Luminespib] (partner 0.01 µM)", "summary_of_the_method": "as §1"}, "BX 795 + OSI-027": {"compound": "O=C(NCCCNc1nc(Nc2cccc(NC(=O)N3CCCC3)c2)ncc1I)c1cccs1 [BX 795] + COc1cccc2cc(-c3nc([C@H]4CC[C@H](C(=O)O)CC4)n4ncnc(N)c34)[nH]c12 [OSI-027] (partner 0.5 µM)", "summary_of_the_method": "as §1"}, "BX 795 + Tozasertib": {"compound": "O=C(NCCCNc1nc(Nc2cccc(NC(=O)N3CCCC3)c2)ncc1I)c1cccs1 [BX 795] + Cc1cc(Nc2cc(N3CCN(C)CC3)nc(Sc3ccc(NC(=O)C4CC4)cc3)n2)n[nH]1 [Tozasertib] (partner 0.1 µM)", "summary_of_the_method": "as §1"}, "BX 795 + Dasatinib": {"compound": "O=C(NCCCNc1nc(Nc2cccc(NC(=O)N3CCCC3)c2)ncc1I)c1cccs1 [BX 795] + Cc1nc(Nc2ncc(C(=O)Nc3c(C)cccc3Cl)s2)cc(N2CCN(CCO)CC2)n1 [Dasatinib] (partner 0.075 µM)", "summary_of_the_method": "as §1"}, "BX 795 + Phenformin": {"compound": "O=C(NCCCNc1nc(Nc2cccc(NC(=O)N3CCCC3)c2)ncc1I)c1cccs1 [BX 795] + N=C(N)NC(=N)NCCc1ccccc1 [Phenformin] (partner 250 µM)", "summary_of_the_method": "as §1"}, "BX 795 + AZD7762": {"compound": "O=C(NCCCNc1nc(Nc2cccc(NC(=O)N3CCCC3)c2)ncc1I)c1cccs1 [BX 795] + NC(=O)Nc1cc(-c2cccc(F)c2)sc1C(=O)N[C@H]1CCCNC1 [AZD7762] (partner 0.2 µM)", "summary_of_the_method": "as §1"}, "BX 795 + Pemetrexed": {"compound": "O=C(NCCCNc1nc(Nc2cccc(NC(=O)N3CCCC3)c2)ncc1I)c1cccs1 [BX 795] + Nc1nc2[nH]cc(CCc3ccc(C(=O)N[C@@H](CCC(=O)O)C(=O)O)cc3)c2c(=O)[nH]1 [Pemetrexed] (partner 0.2 µM)", "summary_of_the_method": "as §1"}, "BX 795 + Decitabine": {"compound": "O=C(NCCCNc1nc(Nc2cccc(NC(=O)N3CCCC3)c2)ncc1I)c1cccs1 [BX 795] + Nc1ncn([C@H]2C[C@H](O)[C@@H](CO)O2)c(=O)n1 [Decitabine] (partner 2 µM)", "summary_of_the_method": "as §1"}, "BX 795 + Vorinostat": {"compound": "O=C(NCCCNc1nc(Nc2cccc(NC(=O)N3CCCC3)c2)ncc1I)c1cccs1 [BX 795] + O=C(CCCCCCC(=O)Nc1ccccc1)NO [Vorinostat] (partner 1 µM)", "summary_of_the_method": "as §1"}, "BX 795 + Olaparib": {"compound": "O=C(NCCCNc1nc(Nc2cccc(NC(=O)N3CCCC3)c2)ncc1I)c1cccs1 [BX 795] + O=C(c1cc(Cc2n[nH]c(=O)c3ccccc23)ccc1F)N1CCN(C(=O)C2CC2)CC1 [Olaparib] (partner 8 µM)", "summary_of_the_method": "as §1"}}, "data": [{"cell line": "NCI-H522", "values": [{"measurement": "relative viability", "setting": "BX 795; 0.04 µM", "value": 0.92}, {"measurement": "relative viability", "setting": "BX 795; 0.1265 µM", "value": 0.877}, {"measurement": "relative viability", "setting": "BX 795; 0.4 µM", "value": 0.921}, {"measurement": "relative viability", "setting": "BX 795; 1.265 µM", "value": 1.01}, {"measurement": "relative viability", "setting": "BX 795 + Trametinib; first compound 0.04 µM", "value": 0.84}, {"measurement": "relative viability", "setting": "BX 795 + Trametinib; first compound 0.1265 µM", "value": 0.781}, {"measurement": "relative viability", "setting": "BX 795 + Trametinib; first compound 0.4 µM", "value": 0.803}, {"measurement": "relative viability", "setting": "BX 795 + Trametinib; first compound 1.265 µM", "value": 0.616}, {"measurement": "relative viability", "setting": "BX 795 + Palbociclib; first compound 0.04 µM", "value": 0.958}, {"measurement": "relative viability", "setting": "BX 795 + Palbociclib; first compound 0.1265 µM", "value": 0.969}, {"measurement": "relative viability", "setting": "BX 795 + Palbociclib; first compound 0.4 µM", "value": 0.943}, {"measurement": "relative viability", "setting": "BX 795 + Palbociclib; first compound 1.265 µM", "value": 0.982}, {"measurement": "relative viability", "setting": "BX 795 + Luminespib; first compound 0.04 µM", "value": 1.41}, {"measurement": "relative viability", "setting": "BX 795 + Luminespib; first compound 0.1265 µM", "value": 1.23}, {"measurement": "relative viability", "setting": "BX 795 + Luminespib; first compound 0.4 µM", "value": 1.02}, {"measurement": "relative viability", "setting": "BX 795 + Luminespib; first compound 1.265 µM", "value": 1.01}, {"measurement": "relative viability", "setting": "BX 795 + OSI-027; first compound 0.04 µM", "value": 0.801}, {"measurement": "relative viability", "setting": "BX 795 + OSI-027; first compound 0.1265 µM", "value": 0.71}, {"measurement": "relative viability", "setting": "BX 795 + OSI-027; first compound 0.4 µM", "value": 0.769}, {"measurement": "relative viability", "setting": "BX 795 + OSI-027; first compound 1.265 µM", "value": 0.685}, {"measurement": "relative viability", "setting": "BX 795 + Tozasertib; first compound 0.04 µM", "value": 0.57}, {"measurement": "relative viability", "setting": "BX 795 + Tozasertib; first compound 0.1265 µM", "value": 0.603}, {"measurement": "relative viability", "setting": "BX 795 + Tozasertib; first compound 0.4 µM", "value": 0.544}, {"measurement": "relative viability", "setting": "BX 795 + Tozasertib; first compound 1.265 µM", "value": 0.569}, {"measurement": "relative viability", "setting": "BX 795 + Dasatinib; first compound 0.04 µM", "value": 0.972}, {"measurement": "relative viability", "setting": "BX 795 + Dasatinib; first compound 0.1265 µM", "value": 0.769}, {"measurement": "relative viability", "setting": "BX 795 + Dasatinib; first compound 0.4 µM", "value": 0.764}, {"measurement": "relative viability", "setting": "BX 795 + Dasatinib; first compound 1.265 µM", "value": 0.849}, {"measurement": "relative viability", "setting": "BX 795 + Phenformin; first compound 0.04 µM", "value": 0.645}, {"measurement": "relative viability", "setting": "BX 795 + Phenformin; first compound 0.1265 µM", "value": 0.643}, {"measurement": "relative viability", "setting": "BX 795 + Phenformin; first compound 0.4 µM", "value": 0.681}, {"measurement": "relative viability", "setting": "BX 795 + Phenformin; first compound 1.265 µM", "value": 0.668}, {"measurement": "relative viability", "setting": "BX 795 + AZD7762; first compound 0.04 µM", "value": 0.716}, {"measurement": "relative viability", "setting": "BX 795 + AZD7762; first compound 0.1265 µM", "value": 0.811}, {"measurement": "relative viability", "setting": "BX 795 + AZD7762; first compound 0.4 µM", "value": 0.777}, {"measurement": "relative viability", "setting": "BX 795 + AZD7762; first compound 1.265 µM", "value": 0.785}, {"measurement": "relative viability", "setting": "BX 795 + Pemetrexed; first compound 0.04 µM", "value": 1.13}, {"measurement": "relative viability", "setting": "BX 795 + Pemetrexed; first compound 0.1265 µM", "value": 1.16}, {"measurement": "relative viability", "setting": "BX 795 + Pemetrexed; first compound 0.4 µM", "value": 1.08}, {"measurement": "relative viability", "setting": "BX 795 + Pemetrexed; first compound 1.265 µM", "value": 1.02}, {"measurement": "relative viability", "setting": "BX 795 + Decitabine; first compound 0.04 µM", "value": 0.556}, {"measurement": "relative viability", "setting": "BX 795 + Decitabine; first compound 0.1265 µM", "value": 0.657}, {"measurement": "relative viability", "setting": "BX 795 + Decitabine; first compound 0.4 µM", "value": 0.73}, {"measurement": "relative viability", "setting": "BX 795 + Decitabine; first compound 1.265 µM", "value": 0.71}, {"measurement": "relative viability", "setting": "BX 795 + Vorinostat; first compound 0.04 µM", "value": 0.9}, {"measurement": "relative viability", "setting": "BX 795 + Vorinostat; first compound 0.1265 µM", "value": 0.864}, {"measurement": "relative viability", "setting": "BX 795 + Vorinostat; first compound 0.4 µM", "value": 0.875}, {"measurement": "relative viability", "setting": "BX 795 + Vorinostat; first compound 1.265 µM", "value": 0.72}, {"measurement": "relative viability", "setting": "BX 795 + Olaparib; first compound 0.04 µM", "value": 0.616}, {"measurement": "relative viability", "setting": "BX 795 + Olaparib; first compound 0.1265 µM", "value": 0.586}, {"measurement": "relative viability", "setting": "BX 795 + Olaparib; first compound 0.4 µM", "value": 0.692}, {"measurement": "relative viability", "setting": "BX 795 + Olaparib; first compound 1.265 µM", "value": 0.658}]}]}
